Laboratory results: patent US8192962B2, “Processes for detecting toxic substances” (Daikin Industries, Ltd., priority 2001, dated 2012)

Test system: Transport facilitation protein genes
Experiment: DNA chip mRNA expression in yeast, transport facilitation protein genes (Table 5)
Type: cell-based, Saccharomyces cerevisiae S288C
Summary of the method: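 Ratios compare mRNA levels in stressed and control S. cerevisiae. Each toxicant was applied for two hours to log-phase cultures at 25° C. at a sub-lethal, growth-inhibiting level; fluorescent cDNA (Cy3- or Cy5-dUTP) was hybridized to a genome-wide yeast chip for over 12 h at 65° C.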

CCCCCCCCCCCCc1ccc(S(=O)(=O)[O-])cc1.[Na+] [(17), sodium dodecylbenzosulfonate]
The level of expressed mRNA in the presence of chemical substance/The level of expressed mRNA in the absence of chemical substance (yeast gene YGR224W): 2.8 | The level of expressed mRNA in the presence of chemical substance/The level of expressed mRNA in the absence of chemical substance (yeast gene YGR260W): 0.9 | The level of expressed mRNA in the presence of chemical substance/The level of expressed mRNA in the absence of chemical substance (yeast gene YGR281W): 2.8 | The level of expressed mRNA in the presence of chemical substance/The level of expressed mRNA in the absence of chemical substance (yeast gene YHL035C): 1.1 | The level of expressed mRNA in the presence of chemical substance/The level of expressed mRNA in the absence of chemical substance (yeast gene YHL040C): 1.4 | The level of expressed mRNA in the presence of chemical substance/The level of expressed mRNA in the absence of chemical substance (yeast gene YHL047C): 1.2 | The level of expressed mRNA in the presence of chemical substance/The level of expressed mRNA in the absence of chemical substance (yeast gene YHR026W): 0.9 | The level of expressed mRNA in the presence of chemical substance/The level of expressed mRNA in the absence of chemical substance (yeast gene YHR092C): 0.9 | The level of expressed mRNA in the presence of chemical substance/The level of expressed mRNA in the absence of chemical substance (yeast gene YHR094C): 1.4 | The level of expressed mRNA in the presence of chemical substance/The level of expressed mRNA in the absence of chemical substance (yeast gene YHR175W): 1.3 | The level of expressed mRNA in the presence of chemical substance/The level of expressed mRNA in the absence of chemical substance (yeast gene YIL006W): 0.8 | The level of expressed mRNA in the presence of chemical substance/The level of expressed mRNA in the absence of chemical substance (yeast gene YIL022W): 0.8 | The level of expressed mRNA in the presence of chemical substance/The level of expressed mRNA in the absence of chemical substance (yeast gene YIL056W): 1.5 | The level of expressed mRNA in the presence of chemical substance/The level of expressed mRNA in the absence of chemical substance (yeast gene YIL088C): 1.2 | The level of expressed mRNA in the presence of chemical substance/The level of expressed mRNA in the absence of chemical substance (yeast gene YJL034W): 1.1 | The level of expressed mRNA in the presence of chemical substance/The level of expressed mRNA in the absence of chemical substance (yeast gene YJL212C): 0.6 | The level of expressed mRNA in the presence of chemical substance/The level of expressed mRNA in the absence of chemical substance (yeast gene YJL219W): 1.6 | The level of expressed mRNA in the presence of chemical substance/The level of expressed mRNA in the absence of chemical substance (yeast gene YJR077C): 1.0 | The level of expressed mRNA in the presence of chemical substance/The level of expressed mRNA in the absence of chemical substance (yeast gene YJR106W): 1.2 | The level of expressed mRNA in the presence of chemical substance/The level of expressed mRNA in the absence of chemical substance (yeast gene YJR121W): 1.1 | The level of expressed mRNA in the presence of chemical substance/The level of expressed mRNA in the absence of chemical substance (yeast gene YKL016C): 1.0 | The level of expressed mRNA in the presence of chemical substance/The level of expressed mRNA in the absence of chemical substance (yeast gene YKL146W): 1.0 | The level of expressed mRNA in the presence of chemical substance/The level of expressed mRNA in the absence of chemical substance (yeast gene YKR039W): 0.9 | The level of expressed mRNA in the presence of chemical substance/The level of expressed mRNA in the absence of chemical substance (yeast gene YKR067W): 0.8 | The level of expressed mRNA in the presence of chemical substance/The level of expressed mRNA in the absence of chemical substance (yeast gene YLL028W): 1.2 | The level of expressed mRNA in the presence of chemical substance/The level of expressed mRNA in the absence of chemical substance (yeast gene YLR081W): 0.7 | The level of expressed mRNA in the presence of chemical substance/The level of expressed mRNA in the absence of chemical substance (yeast gene YLR295C): 0.9 | The level of expressed mRNA in the presence of chemical substance/The level of expressed mRNA in the absence of chemical substance (yeast gene YLR348C): 1.1 | The level of expressed mRNA in the presence of chemical substance/The level of expressed mRNA in the absence of chemical substance (yeast gene YLR378C): 0.9 | The level of expressed mRNA in the presence of chemical substance/The level of expressed mRNA in the absence of chemical substance (yeast gene YMR011W): 1.3 | The level of expressed mRNA in the presence of chemical substance/The level of expressed mRNA in the absence of chemical substance (yeast gene YMR162C): 0.8 | The level of expressed mRNA in the presence of chemical substance/The level of expressed mRNA in the absence of chemical substance (yeast gene YMR203W): 0.8 | The level of expressed mRNA in the presence of chemical substance/The level of expressed mRNA in the absence of chemical substance (yeast gene YNL055C): 1.2 | The level of expressed mRNA in the presence of chemical substance/The level of expressed mRNA in the absence of chemical substance (yeast gene YNL259C): 2.6 | The level of expressed mRNA in the presence of chemical substance/The level of expressed mRNA in the absence of chemical substance (yeast gene YNR072W): 1.3 | The level of expressed mRNA in the presence of chemical substance/The level of expressed mRNA in the absence of chemical substance (yeast gene YOL119C): 1.4 | The level of expressed mRNA in the presence of chemical substance/The level of expressed mRNA in the absence of chemical substance (yeast gene YOL156W): 0.9 | The level of expressed mRNA in the presence of chemical substance/The level of expressed mRNA in the absence of chemical substance (yeast gene YOL163W): 0.8 | The level of expressed mRNA in the presence of chemical substance/The level of expressed mRNA in the absence of chemical substance (yeast gene YOR035C): 1.6 | The level of expressed mRNA in the presence of chemical substance/The level of expressed mRNA in the absence of chemical substance (yeast gene YOR130C): 1.5 | The level of expressed mRNA in the presence of chemical substance/The level of expressed mRNA in the absence of chemical substance (yeast gene YOR153W): 2.5 | The level of expressed mRNA in the presence of chemical substance/The level of expressed mRNA in the absence of chemical substance (yeast gene YOR273C): 3.2 | The level of expressed mRNA in the presence of chemical substance/The level of expressed mRNA in the absence of chemical substance (yeast gene YOR316C): 0.8 | The level of expressed mRNA in the presence of chemical substance/The level of expressed mRNA in the absence of chemical substance (yeast gene YOR332W): 1.3 | The level of expressed mRNA in the presence of chemical substance/The level of expressed mRNA in the absence of chemical substance (yeast gene YOR348C): 0.9 | The level of expressed mRNA in the presence of chemical substance/The level of expressed mRNA in the absence of chemical substance (yeast gene YPL036W): 0.4 | The level of expressed mRNA in the presence of chemical substance/The level of expressed mRNA in the absence of chemical substance (yeast gene YPL134C): 1.3 | The level of expressed mRNA in the presence of chemical substance/The level of expressed mRNA in the absence of chemical substance (yeast gene YPL271W): 1.2 | The level of expressed mRNA in the presence of chemical substance/The level of expressed mRNA in the absence of chemical substance (yeast gene YPR192W): 1.6 | The level of expressed mRNA in the presence of chemical substance/The level of expressed mRNA in the absence of chemical substance (yeast gene YPR194C): 1.0
